Measurements from PubChem BioAssay AID732 (Emory University Molecular Libraries Screening Center, 2007).
Calls of active or inactive are those of the source. The rule behind the calls is not given here.

The compounds below were run on in vivo angiogenesis, blood vessel count (assay: angiogenesis inhibition in living animals, in vivo study, HTS (AID 732;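 note: zebrafish embryos dosed at one day post fertilization; 0% = reference inhibitor and 100% = plate mean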)). Settings: active compounds read low;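 tested at 30 µM in the well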.
In the case of C#CCOC(=O)C1=CCCN(C)C1, the vessel count % control is reported as 106% (inactive).
With CCCN1CCc2cccc3c2[C@H]1Cc1ccc(O)c(O)c1-3 the vessel count % control was 89.9% (inactive).
CC(N)C1CCC(C(=O)Nc2ccncc2)CC1 (stereo unspecified) was tested, and the vessel count % control was 111% (inactive).
O=c1[nH]c2ccccc2n1CCCN1CCN(C(c2ccccc2)c2ccccc2)CC1 was tested, and the vessel count % control was 120% (inactive).
In the case of C[N+](C)(C)CCOC(=O)CCC(=O)OCC[N+](C)(C)C, the vessel count % control is reported as 94.4% (inactive).
In the case of N[C@@H](CCC(=O)N[C@H](CSN=O)C(=O)NCC(=O)O)C(=O)O, the vessel count % control is reported as 97.4% (inactive).
In the case of C[C@]12CCC(=O)C=C1CC[C@@H]1[C@@H]2CC[C@]2(C)C(=O)CC[C@@H]12, the vessel count % control is reported as 102% (inactive).
With N[C@@H](Cc1ccc(F)cc1)C(=O)O the vessel count % control was 108% (inactive).
For CC12CC3CC(C)(C1)CC(N)(C3)C2, the vessel count % control was 128% (inactive).
For CC(=O)Oc1cc(C(C)C)c(OCCN(C)C)cc1C, the vessel count % control was 109% (inactive).
In the case of c1ccc2c(c1)OCC(C1=NCCN1)O2 (stereo unspecified), the vessel count % control is reported as 146% (inactive).
For O=Nc1ccc2oc(=O)ccc2c1, the vessel count % control was 95% (inactive).
O=C(O)c1ccccc1Nc1ccccc1 was tested, and the vessel count % control was 109% (inactive).
For CCCCCCCCCCCCCCCC(=O)OC(CC(=O)O)C[N+](C)(C)C (stereo unspecified), the vessel count % control was 92% (inactive).
With CN1C2CCC1CC(OC(c1ccccc1)c1ccccc1N)C2 (stereo unspecified) the vessel count % control was 91.2% (inactive).
C[C@H](Cc1ccc(O)c(O)c1)[C@@H](C)Cc1ccc(O)c(O)c1 was tested, and the vessel count % control was 124% (inactive).
In the case of NC(=O)CN1CCCC1=O, the vessel count % control is reported as 99.2% (inactive).
With CC(=O)N[C@@H](CS)C(=O)O the vessel count % control was 96.5% (inactive).
N[C@@H](CCCC(=O)O)C(=O)O was tested, and the vessel count % control was 130% (inactive).
For COc1ccc(CNC(=O)/C=C/c2ccc3[nH]cc(CCN(C)C)c3c2)cc1, the vessel count % control was 75.8% (inactive).
NCCCP(=O)(O)O was tested, and the vessel count % control was 91.6% (inactive).
COc1cccc(-c2cc(=O)c3ccccc3o2)c1N was tested, and the vessel count % control was 73.8% (inactive).
With O=Nc1c(-c2c(O)[nH]c3ccccc23)[nH]c2ccc(Br)cc12 the vessel count % control was 67.5% (inactive).
With c1ccc(C2CN3CCSC3=N2)cc1 (stereo unspecified) the vessel count % control was 95.6% (inactive).
For Cn1c(=O)[nH]c2ncn(C)c2c1=O, the vessel count % control was 95.7% (inactive).
COc1ccc2[nH]cc(CCN)c2c1 was tested, and the vessel count % control was 108% (inactive).
With CCN(CC)CCOC(=O)C1(C2CCCCC2)CCCCC1 the vessel count % control was 86.4% (inactive).
With CSc1nc(N)c2ncn([C@@H]3O[C@H](COP(=O)(O)OP(=O)(O)OP(=O)(O)O)[C@H](O)C3O)c2n1 (stereo partly specified) the vessel count % control was 105% (inactive).
With CN1C2CCC1CC(OC(c1ccccc1)c1ccccc1)C2 (stereo unspecified) the vessel count % control was 91.6% (inactive).
With Cc1ccccc1/C=C/C1=NCCN1 the vessel count % control was 102% (inactive).
With CC1(C)CCC2=C(O1)c1ccccc1C(=O)C2=O the vessel count % control was 65.8% (inactive).
In the case of NC1CCN(c2cccc(Cl)n2)CC1, the vessel count % control is reported as 91.5% (inactive).
With CCCn1c(=O)c2c(ncn2C)n(CCC)c1=O the vessel count % control was 98.7% (inactive).
O=C(O)C1CN(CCCP(=O)(O)O)CCN1 (stereo unspecified) was tested, and the vessel count % control was 119% (inactive).
CN1CCN(C2Cc3ccccc3Sc3ccc(Cl)cc32)CC1 (stereo unspecified) was tested, and the vessel count % control was 120% (inactive).
In the case of O=C(O)Cc1ccc(O)c(O)c1, the vessel count % control is reported as 107% (inactive).
With CC1=C(/C=C/C(C)=C/C=C/C(C)=C/C(=O)O)C(C)(C)CCC1 the vessel count % control was 70% (inactive).
With O=C(O)c1cc[c]([Hg][Cl])cc1 the vessel count % control was 105% (inactive).
In the case of NCCCCNCCCN, the vessel count % control is reported as 122% (inactive).
With CN(C)CCCN1c2ccccc2Sc2ccccc21 the vessel count % control was 93.7% (inactive).
With COc1ccccc1N1CCN(CCCNc2c(C)c(=O)n(C)c(=O)n2C)CC1 the vessel count % control was 70.6% (inactive).
With CN1CCc2c(cc(O)c(O)c2Cl)C(c2cccc(Cl)c2)C1 (stereo unspecified) the vessel count % control was 118% (inactive).
OC[C@H]1O[C@@H](n2cnc3c(NCCc4ccccc4)ncnc32)C(O)[C@H]1O (stereo partly specified) was tested, and the vessel count % control was 79.4% (inactive).
With Nc1nc2[nH]c(=O)cnc2c(=O)[nH]1 the vessel count % control was 140% (inactive).
With O=C1CCC(c2ccc(-n3ccnc3)cc2)=NN1 the vessel count % control was 86% (inactive).
For Oc1cc2c(cc1O)CN(C(=S)NCCc1ccc(Cl)cc1)CCC2, the vessel count % control was 93.3% (inactive).
With CCN(CC)C(C)C(=O)N1c2ccccc2Sc2ccccc21 (stereo unspecified) the vessel count % control was 94.9% (inactive).
With CC(C)(C)c1ccc(S(=O)(=O)/C=C/C#N)cc1 the vessel count % control was 0% (inactive).
With CN(N=O)c1ccc(O)c(O)c1 the vessel count % control was 96.8% (inactive).
CO/N=C(\C(=O)N[C@@H]1C(=O)N2C(C(=O)O)=C(COC(C)=O)CS[C@H]12)c1csc(N)n1 (stereo in doubt) was tested, and the vessel count % control was 104% (inactive).
Oc1ccccc1O was tested, and the vessel count % control was 96.4% (inactive).
